Data taken from patent publication US20260216207A1, “7-CARBONYLSTAUROSPORINE DERIVATIVE, PREPARATION METHOD THEREFOR, AND USE THEREOF” (HANGZHOU KEXING BIOCHEM. CO., LTD., priority 2023, published 2026).
Entries after “also recorded” stand apart in the source; their conditions may differ.

What was measured:
Type in all cases: biochemical
PIM-1 kinase = PIM-1 kinase (Homo sapiens, UniProt P11309); test: HTRF KinEASE kinase assay, PIM-1 inhibitory activity
Description: Inhibitory activities against PIM-1, TRKA, TRKB, FLT3, PKCδ, PKCε, PKCη, PAK4, PLK1, ROCK2, and IKKβ kinases were all determined using an HTRF®KinEASE™ kinase assay kit based on a time-resolved fluorescence technology. 7-carbonylstaurosporine (7OSTA) and TP-3654 were used as positive controls, and 3 duplicate wells were set in parallel. Specific operation steps are as follows. • (1) A kinase buffer was formulated and then used to formulate compounds to be tested, a positive drug, a substrate, kinases, and adenosine triphosphate (ATP). • (2) 2 μL of the substrate, 2 μL of the kinases (the kinases were not added in a negative control group), 4 μL of the compounds to be tested or the positive drug (4 μL of a buffer was added in a positive control group, and 6 μL of a buffer was added in the negative control group), and 2 μL of the ATP were sequentially added into each well of a 384-well microplate, and the microplate was sealed with a membrane and then centrifuged for uniform mixing. • (3) According to different types of the kinases, incubation was performed in an incubator at 37° C. for a specific time. • (4) A detection solution was formulated using XL-665, an antibody, and a detection buffer, 10 µL of the detection solution was added into each well, the microplate was sealed with a membrane and then centrifuged for uniform mixing, and standing was performed at room temperature for 1 hour. • (5) Fluorescence value intensities F1 and F2 at wavelengths of 620 nm and 665 nm were measured using a multifunctional microplate tester, respectively. A signal ratio was calculated as F2/F1×10000, and then an IC50 value was calculated using Graphpad Prism 8 software.

PKCη = PKCη (Homo sapiens, UniProt P24723); test: HTRF KinEASE kinase assay, PKCη (kinase selectivity); conditions: HTRF KinEASE kit, 3 duplicate wells; read-out: PKCη IC50
Protocol: (§1) Inhibitory activities against PIM-1, TRKA, TRKB, FLT3, PKCδ, PKCε, PKCη, PAK4, PLK1, ROCK2, and IKKβ kinases were all determined using an HTRF®KinEASE™ kinase assay kit based on a time-resolved fluorescence technology. 7-carbonylstaurosporine (7OSTA) and TP-3654 were used as positive controls, and 3 duplicate wells were set in parallel. […] A signal ratio was calculated as F2/F1×10000, and then an IC50 value was calculated using Graphpad Prism 8 software.

TRKA = TRKA (Homo sapiens, UniProt P04629); test: HTRF KinEASE kinase assay, TRKA (kinase selectivity); conditions: HTRF KinEASE kit, 3 duplicate wells; read-out: TRKA IC50
Protocol: as §1

IKKβ = target: T1, IKKβ (Homo sapiens, UniProt O14920); test: HTRF KinEASE kinase assay, IKKβ (kinase selectivity); conditions: HTRF KinEASE kit, 3 duplicate wells; read-out: IKKβ IC50
T1 sequence (O14920 1-756): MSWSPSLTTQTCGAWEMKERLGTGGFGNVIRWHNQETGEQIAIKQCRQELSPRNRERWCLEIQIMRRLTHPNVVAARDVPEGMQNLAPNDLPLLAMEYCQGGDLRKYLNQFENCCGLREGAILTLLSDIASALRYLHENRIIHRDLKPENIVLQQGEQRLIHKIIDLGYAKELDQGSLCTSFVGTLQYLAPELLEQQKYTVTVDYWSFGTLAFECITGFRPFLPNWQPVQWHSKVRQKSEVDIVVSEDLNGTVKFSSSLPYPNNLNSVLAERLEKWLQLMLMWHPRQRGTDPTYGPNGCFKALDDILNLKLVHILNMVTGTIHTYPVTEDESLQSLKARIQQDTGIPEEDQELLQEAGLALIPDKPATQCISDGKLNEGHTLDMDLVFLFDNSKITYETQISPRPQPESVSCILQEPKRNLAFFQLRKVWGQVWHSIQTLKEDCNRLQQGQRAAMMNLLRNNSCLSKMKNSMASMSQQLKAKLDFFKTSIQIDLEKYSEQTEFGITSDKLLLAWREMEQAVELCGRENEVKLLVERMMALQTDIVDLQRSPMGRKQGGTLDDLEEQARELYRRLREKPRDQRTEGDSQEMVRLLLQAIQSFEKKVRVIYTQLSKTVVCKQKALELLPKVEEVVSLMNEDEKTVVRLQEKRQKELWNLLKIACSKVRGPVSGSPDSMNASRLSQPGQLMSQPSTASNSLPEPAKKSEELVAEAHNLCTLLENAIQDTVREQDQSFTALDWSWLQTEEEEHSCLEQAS
Protocol: as §1

TRKB = TRKB (Homo sapiens, UniProt Q16620); test: HTRF KinEASE kinase assay, TRKB (kinase selectivity); conditions: HTRF KinEASE kit, 3 duplicate wells; read-out: TRKB IC50
Protocol: as §1

PKCδ = PKCδ (Homo sapiens, UniProt Q05655); test: HTRF KinEASE kinase assay, PKCδ (kinase selectivity); conditions: HTRF KinEASE kit, 3 duplicate wells; read-out: PKCδ IC50
Protocol: as §1

PLK1 = PLK1 (Homo sapiens, UniProt P53350); test: HTRF KinEASE kinase assay, PLK1 (kinase selectivity); conditions: HTRF KinEASE kit, 3 duplicate wells; read-out: PLK1 IC50
Protocol: as §1

PKCε = target: T2, PKCε (Homo sapiens, UniProt Q02156); test: HTRF KinEASE kinase assay, PKCε (kinase selectivity); conditions: HTRF KinEASE kit, 3 duplicate wells; read-out: PKCε IC50
T2 sequence (Q02156 1-737): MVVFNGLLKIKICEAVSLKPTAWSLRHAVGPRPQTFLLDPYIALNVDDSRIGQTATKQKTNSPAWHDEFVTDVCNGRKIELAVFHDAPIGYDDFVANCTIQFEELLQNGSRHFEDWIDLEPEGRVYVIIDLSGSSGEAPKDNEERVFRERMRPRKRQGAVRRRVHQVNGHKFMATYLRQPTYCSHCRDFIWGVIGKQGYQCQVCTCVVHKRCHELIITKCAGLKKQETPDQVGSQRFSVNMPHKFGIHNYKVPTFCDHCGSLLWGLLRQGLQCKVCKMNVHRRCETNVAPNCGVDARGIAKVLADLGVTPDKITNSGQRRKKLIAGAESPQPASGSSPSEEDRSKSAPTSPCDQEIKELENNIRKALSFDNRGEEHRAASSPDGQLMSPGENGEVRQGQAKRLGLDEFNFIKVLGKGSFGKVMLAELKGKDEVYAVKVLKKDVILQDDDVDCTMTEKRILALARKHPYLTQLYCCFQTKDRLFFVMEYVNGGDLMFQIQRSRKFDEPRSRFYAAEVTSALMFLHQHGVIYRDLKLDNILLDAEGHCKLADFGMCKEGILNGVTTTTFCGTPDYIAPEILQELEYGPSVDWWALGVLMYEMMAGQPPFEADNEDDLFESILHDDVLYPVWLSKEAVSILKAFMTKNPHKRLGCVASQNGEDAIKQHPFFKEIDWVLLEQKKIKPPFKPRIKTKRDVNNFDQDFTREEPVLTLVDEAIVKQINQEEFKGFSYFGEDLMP
Protocol: as §1

Chain of PIM-1 kinase (P11309 whole entry): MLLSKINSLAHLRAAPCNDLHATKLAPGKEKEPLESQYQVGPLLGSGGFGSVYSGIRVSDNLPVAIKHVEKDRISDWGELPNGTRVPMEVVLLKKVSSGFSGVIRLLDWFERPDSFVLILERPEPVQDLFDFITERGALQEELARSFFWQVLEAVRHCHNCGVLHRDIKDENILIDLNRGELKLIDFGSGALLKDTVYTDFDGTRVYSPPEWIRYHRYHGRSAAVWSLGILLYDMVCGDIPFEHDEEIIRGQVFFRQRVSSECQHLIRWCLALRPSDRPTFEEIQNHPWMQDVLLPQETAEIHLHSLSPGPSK
Chain of TRKB (Q16620 32-822, species assumed): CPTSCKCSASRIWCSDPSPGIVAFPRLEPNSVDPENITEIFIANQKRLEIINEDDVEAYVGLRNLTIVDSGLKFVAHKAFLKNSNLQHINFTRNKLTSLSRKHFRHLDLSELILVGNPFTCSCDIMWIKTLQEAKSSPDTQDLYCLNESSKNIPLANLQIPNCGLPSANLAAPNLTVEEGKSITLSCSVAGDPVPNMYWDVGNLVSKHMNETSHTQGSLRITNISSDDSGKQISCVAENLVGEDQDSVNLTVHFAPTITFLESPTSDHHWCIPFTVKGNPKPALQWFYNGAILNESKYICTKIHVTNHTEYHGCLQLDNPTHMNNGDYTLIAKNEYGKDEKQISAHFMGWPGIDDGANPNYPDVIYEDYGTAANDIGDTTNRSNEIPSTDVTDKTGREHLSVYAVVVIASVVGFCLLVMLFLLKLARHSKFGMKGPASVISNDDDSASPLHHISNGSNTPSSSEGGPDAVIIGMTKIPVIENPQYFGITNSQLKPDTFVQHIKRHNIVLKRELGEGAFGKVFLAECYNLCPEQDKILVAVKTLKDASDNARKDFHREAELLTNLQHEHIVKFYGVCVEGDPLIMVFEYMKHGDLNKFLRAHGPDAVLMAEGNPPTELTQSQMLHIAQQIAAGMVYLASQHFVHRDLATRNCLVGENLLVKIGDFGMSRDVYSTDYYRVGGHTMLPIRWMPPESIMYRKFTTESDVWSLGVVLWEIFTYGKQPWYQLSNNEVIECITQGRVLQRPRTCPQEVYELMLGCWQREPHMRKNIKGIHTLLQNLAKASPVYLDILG
Chain of PLK1 (P53350 whole entry, species assumed): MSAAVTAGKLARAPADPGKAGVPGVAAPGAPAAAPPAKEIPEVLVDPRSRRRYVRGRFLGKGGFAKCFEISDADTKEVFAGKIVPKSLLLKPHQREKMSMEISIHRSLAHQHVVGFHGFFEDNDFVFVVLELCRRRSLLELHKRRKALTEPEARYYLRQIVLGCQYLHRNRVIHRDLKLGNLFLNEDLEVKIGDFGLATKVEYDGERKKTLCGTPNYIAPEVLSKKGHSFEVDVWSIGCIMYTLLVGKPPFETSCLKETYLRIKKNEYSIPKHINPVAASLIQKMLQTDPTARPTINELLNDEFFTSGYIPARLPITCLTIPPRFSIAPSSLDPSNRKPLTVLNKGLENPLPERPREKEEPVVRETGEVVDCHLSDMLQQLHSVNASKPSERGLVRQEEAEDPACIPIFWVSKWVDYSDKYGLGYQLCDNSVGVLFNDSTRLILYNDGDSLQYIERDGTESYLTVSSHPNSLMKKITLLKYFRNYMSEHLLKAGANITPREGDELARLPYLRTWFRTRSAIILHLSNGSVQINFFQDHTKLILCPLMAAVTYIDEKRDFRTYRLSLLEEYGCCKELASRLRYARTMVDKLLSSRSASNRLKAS
Chain of PKCη (P24723 whole entry): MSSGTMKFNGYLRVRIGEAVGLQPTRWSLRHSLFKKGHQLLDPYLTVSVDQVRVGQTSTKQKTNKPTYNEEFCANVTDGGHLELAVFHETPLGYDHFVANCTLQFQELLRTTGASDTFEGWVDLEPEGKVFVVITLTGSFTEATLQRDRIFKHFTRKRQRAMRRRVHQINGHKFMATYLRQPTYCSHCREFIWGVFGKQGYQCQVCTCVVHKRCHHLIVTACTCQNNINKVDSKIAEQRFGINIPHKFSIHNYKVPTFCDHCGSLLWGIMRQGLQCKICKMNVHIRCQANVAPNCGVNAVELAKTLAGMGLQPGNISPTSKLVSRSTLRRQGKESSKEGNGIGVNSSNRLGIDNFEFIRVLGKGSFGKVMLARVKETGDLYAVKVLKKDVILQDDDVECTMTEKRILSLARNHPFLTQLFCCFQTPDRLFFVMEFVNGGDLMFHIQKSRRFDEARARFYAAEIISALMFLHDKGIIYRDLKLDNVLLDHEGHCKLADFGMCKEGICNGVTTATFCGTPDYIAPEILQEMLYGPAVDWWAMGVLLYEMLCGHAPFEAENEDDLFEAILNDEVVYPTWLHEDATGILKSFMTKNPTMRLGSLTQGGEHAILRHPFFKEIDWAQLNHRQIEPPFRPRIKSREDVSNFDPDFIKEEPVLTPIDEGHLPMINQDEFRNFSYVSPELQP
Chain of PKCδ (Q05655 whole entry): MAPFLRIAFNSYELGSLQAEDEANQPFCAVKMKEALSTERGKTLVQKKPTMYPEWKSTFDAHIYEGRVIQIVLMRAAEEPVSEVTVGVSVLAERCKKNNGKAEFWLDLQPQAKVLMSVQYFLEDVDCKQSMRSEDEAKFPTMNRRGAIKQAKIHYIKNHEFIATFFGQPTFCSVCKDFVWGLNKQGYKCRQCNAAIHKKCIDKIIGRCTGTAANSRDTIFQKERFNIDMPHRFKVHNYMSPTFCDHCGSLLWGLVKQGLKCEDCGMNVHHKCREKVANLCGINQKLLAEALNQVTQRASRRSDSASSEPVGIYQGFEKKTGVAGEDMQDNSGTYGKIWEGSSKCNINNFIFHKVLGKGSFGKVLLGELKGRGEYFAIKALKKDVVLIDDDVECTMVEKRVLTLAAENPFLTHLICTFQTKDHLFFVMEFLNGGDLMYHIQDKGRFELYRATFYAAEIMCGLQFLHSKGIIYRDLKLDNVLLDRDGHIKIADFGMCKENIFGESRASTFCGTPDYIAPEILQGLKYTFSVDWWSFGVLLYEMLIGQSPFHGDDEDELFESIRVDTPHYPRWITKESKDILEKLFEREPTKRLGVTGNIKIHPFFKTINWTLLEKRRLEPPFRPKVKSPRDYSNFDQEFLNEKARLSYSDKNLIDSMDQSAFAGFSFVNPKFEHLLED
Chain of TRKA (P04629 33-796, species assumed): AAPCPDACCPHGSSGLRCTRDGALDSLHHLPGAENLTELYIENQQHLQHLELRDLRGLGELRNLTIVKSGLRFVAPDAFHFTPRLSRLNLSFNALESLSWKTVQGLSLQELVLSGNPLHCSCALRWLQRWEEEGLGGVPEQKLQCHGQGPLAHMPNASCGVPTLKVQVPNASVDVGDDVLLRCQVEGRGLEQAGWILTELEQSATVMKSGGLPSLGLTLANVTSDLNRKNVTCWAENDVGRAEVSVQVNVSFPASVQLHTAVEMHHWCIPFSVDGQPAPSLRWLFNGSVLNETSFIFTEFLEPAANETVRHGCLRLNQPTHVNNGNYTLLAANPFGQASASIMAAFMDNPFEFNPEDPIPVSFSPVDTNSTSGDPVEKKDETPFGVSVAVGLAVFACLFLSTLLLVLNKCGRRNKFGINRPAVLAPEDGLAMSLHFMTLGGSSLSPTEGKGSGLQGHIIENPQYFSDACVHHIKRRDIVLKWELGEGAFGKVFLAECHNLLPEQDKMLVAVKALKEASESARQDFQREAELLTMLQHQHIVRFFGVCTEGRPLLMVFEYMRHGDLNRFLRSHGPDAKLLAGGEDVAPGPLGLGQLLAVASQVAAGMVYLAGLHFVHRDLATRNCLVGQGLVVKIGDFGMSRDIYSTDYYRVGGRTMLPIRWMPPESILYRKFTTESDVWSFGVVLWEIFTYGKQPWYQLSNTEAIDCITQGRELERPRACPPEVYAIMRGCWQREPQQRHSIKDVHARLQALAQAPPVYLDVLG

`CO[C@@H]1[C@H](N(C)C(=O)CCC(=O)NO)C[C@H]2O[C@]1(C)n1c3ccccc3c3c4c(c5c6ccccc6n2c5c31)C(=O)NC4=O` [Compound 17] was tested, and the IC50 (PIM-1 kinase; HTRF KinEASE kit, 3 duplicate wells, read-out: PIM-1 kinase inhibitory activity (IC50)) was 0.0059 µM, the “selectivity for the PIM-1 kinase (in words)” value (PIM-1 kinase; versus TRKA, TRKB, FLT3, PKCδ, PKCε, PKCη, PAK4, PLK1, ROCK2, IKKβ) was “excellent selective inhibitory effect on the PIM-1 kinase; also recorded: excellent selective inhibition ability against the PIM-1 kinase” and the IC50 (PKCη) was 0.0732 µM. The IC50 (TRKA) was 0.004 µM, the IC50 (IKKβ) was greater than 1 µM and the IC50 (TRKB) was 0.0136 µM. For the same molecule, the IC50 (PKCδ) was 0.0104 µM, the IC50 (PLK1) was 0.421 µM and the IC50 (PKCε) was 0.069 µM.
